System: Botrytis cinerea
Experiment: Treatment of wounded strawberries inoculated with Botrytis cinerea (Examples 5, 6)
Format: in vivo
Settings: for Observed antifungal activity O (%): strawberries, 20° C.
Protocol: Twelve fresh, organic strawberries were used per treatment. Each strawberry was wounded with a 0.5 mm long cut and each wound was inoculated with 10 μl of a Botrytis cinerea suspension containing 1×10^5 of spores/ml. After a 3-hour incubation period at 20° C., each strawberry was dipped individually for 1 minute in a freshly prepared aqueous antifungal composition comprising either 500 ppm natamycin (DSM Food Specialties, Delft, The Netherlands), 500 ppm fenhexamid or both. Each antifungal composition also comprised 3.2% (w/w) beeswax, 0.8% (w/w) glycerol, 0.7% (w/w) polyoxyethylene sorbitan monostearate (Tween 60), 0.1% (w/w) polyoxyethylene sorbitan monooleate (Tween 80), 0.05% (w/w) methylhydroxyethyl-cellulose (MHEC), 0.03% (w/w) anti-foaming agent, 0.02% (w/w) xanthan gum, 0.02% (w/w) citric acid, 0.01% (w/w) lactic acid and 0.01% potassium sorbate. A composition without natamycin or fenhexamid was used as control. […] The treated strawberries were incubated in a closed box in the dark at 20° C. for 11 days.
The expected antifungal activity (E in %) of the combined antifungal composition comprising both active ingredients was calculated according to the Colby equation (Colby, 1967): […]
wherein X and Y are the observed antifungal activities (in %) of the individual active ingredients X and Y, respectively.
The experiment was conducted as described in Example 5, except for the fact that each wounded and inoculated strawberry was dipped individually for 1 minute in a freshly prepared aqueous antifungal composition comprising either 250 ppm natamycin (DSM Food Specialties, Delft, The Netherlands), 250 ppm fenhexamid or both. The treated strawberries were incubated in a closed box in the dark at 20° C. for 10 days. During incubation, the treated strawberries were assessed on mould growth according to the two methods described in Example 5.

C[C@@H]1C/C=C/C=C/C=C/C=C/[C@H](O[C@@H]2O[C@H](C)[C@@H](O)[C@H](N)[C@@H]2O)C[C@@H]2O[C@](O)(C[C@@H](O)C[C@H]3O[C@@H]3/C=C/C(=O)O1)C[C@H](O)[C@H]2C(=O)O [Natamycin, natamycin]
Number of moulded strawberries/total number of 12 strawberries (Day 5, 20° C., 250 ppm natamycin, 250 ppm fenhexamid or both): 9/12
Number of moulded strawberries/total number of 12 strawberries (Day 5, 20° C., 250 ppm natamycin, 250 ppm fenhexamid or both, listed as natamycin): 9
Number of moulded strawberries/total number of 12 strawberries (Day 6-7, 20° C., 250 ppm natamycin, 250 ppm fenhexamid or both): 11/12
Number of moulded strawberries/total number of 12 strawberries (Day 6-7, 20° C., 250 ppm natamycin, 250 ppm fenhexamid or both, listed as natamycin): 11
Number of moulded strawberries/total number of 12 strawberries (Day 7-8, 20° C., 500 ppm natamycin, 500 ppm fenhexamid or both): 12/12
Number of moulded strawberries/total number of 12 strawberries (Day 8, 20° C., 250 ppm natamycin, 250 ppm fenhexamid or both): 11/12
Number of moulded strawberries/total number of 12 strawberries (Day 8, 20° C., 250 ppm natamycin, 250 ppm fenhexamid or both, listed as natamycin): 11
Number of moulded strawberries/total number of 12 strawberries (Day 9, 20° C., 500 ppm natamycin, 500 ppm fenhexamid or both): 12/12
Number of moulded strawberries of 12 (after 6 through 9 days of incubation, 500 ppm natamycin alone or 500 ppm fenhexamid alone): 12
Observed antifungal activity O (%) (8 days, 250 ppm natamycin, 250 ppm fenhexamid or both): 18%
Observed antifungal activity O (%) (9 days, 250 ppm natamycin, 250 ppm fenhexamid or both): 13%
Observed antifungal activity O (%) (10 days, 250 ppm natamycin, 250 ppm fenhexamid or both): 4.8%
Observed antifungal activity O (%) (10 days, 500 ppm natamycin, 500 ppm fenhexamid or both): 2.4%
Observed antifungal activity O (%) (11 days, 500 ppm natamycin, 500 ppm fenhexamid or both): 2.4%
